The record followed here is article PMC5407064 (Cell reports, 2017).

Substitutions are numbered along the chain they refer to.

One test deals with T1, SIRT1 K444E (Homo sapiens, UniProt Q96EB6, K444E).
T1 sequence (Q96EB6 2-747 K444E): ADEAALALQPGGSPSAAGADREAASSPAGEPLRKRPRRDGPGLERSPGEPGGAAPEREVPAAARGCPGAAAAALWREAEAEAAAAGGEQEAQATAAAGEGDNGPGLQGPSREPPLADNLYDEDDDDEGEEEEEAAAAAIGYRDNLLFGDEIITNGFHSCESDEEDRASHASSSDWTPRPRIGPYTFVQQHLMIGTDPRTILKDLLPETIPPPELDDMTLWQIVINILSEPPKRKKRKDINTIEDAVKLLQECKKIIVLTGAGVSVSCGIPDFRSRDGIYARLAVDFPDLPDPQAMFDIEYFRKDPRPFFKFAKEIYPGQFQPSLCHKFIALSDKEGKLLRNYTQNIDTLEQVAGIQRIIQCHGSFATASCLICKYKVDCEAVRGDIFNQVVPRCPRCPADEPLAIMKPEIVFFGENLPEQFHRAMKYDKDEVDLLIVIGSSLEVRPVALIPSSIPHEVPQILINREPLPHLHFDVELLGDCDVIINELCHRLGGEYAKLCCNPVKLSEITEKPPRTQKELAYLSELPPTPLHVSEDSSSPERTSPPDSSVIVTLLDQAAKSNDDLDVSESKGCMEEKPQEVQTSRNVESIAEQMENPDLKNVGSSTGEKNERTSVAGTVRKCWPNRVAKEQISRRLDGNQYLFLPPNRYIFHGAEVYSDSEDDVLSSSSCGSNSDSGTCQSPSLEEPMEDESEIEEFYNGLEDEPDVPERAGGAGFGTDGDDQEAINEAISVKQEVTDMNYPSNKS
The test is described as follows: steady-state kinetics. The class given is biochemical.

In another test the target is T2, SIRT1 (Homo sapiens, UniProt Q96EB6).
T2 sequence (Q96EB6 2-747): T1 sequence (Q96EB6 2-747 K444E) with E443K
The test is described as follows: SIRT1 activation assay. The class given is biochemical.

In the case of `NC(=O)c1ccc[n+]([C@@H]2O[C@H](COP(=O)([O-])OP(=O)(O)OC[C@H]3O[C@@H](n4cnc5c(N)ncnc54)[C@H](O)[C@@H]3O)[C@@H](O)[C@H]2O)c1` [NAD^+], the “steady-state kinetics (KM, kcat), FDL SIRT1 assay with varied NAD+” value at SIRT1 K444E was “K444E SIRT1 is catalytically more active than WT (higher kcat) and has a significantly lower KM for both substrates”. As to `Oc1ccc(/C=C/c2cc(O)cc(O)c2)cc1` [resveratrol], on SIRT1, the “SIRT1 activation assay (Fig. S4C); activation peak concentration” value worked out at 1 mM.
